Source: PubChem BioAssay AID1963827 (Molecular Pharmacology Branch, DTP, NCI, 2024)

Test system: 994946-033-R-J1-PDC complex spheroid viability
Experiment: Anticancer human tumor 994946-033-R-J1-PDC patient-derived melanoma cell line growth inhibition [POLQ]
Conditions: for IC50: curve of first compound; for viability, T/C: stronger effect = lower value
Protocol: Multicellular complex tumor spheroid response to Polymerase (POL) inhibitors (novobiocin, ART-558, RP6685) in combination with a variety of drugs and investigational agents in selected tumor cell lines
The POL inhibitors (novobiocin, ART-558, and RP6685) were evaluated both individually and in combination with standard of care and investigational anticancer small molecules within a complex spheroid model of solid tumors. . Complex spheroids include a stromal component modeled by human endothelial cells (HUVEC) and fibroblasts modeled by human mesenchymal stem cells (MSCs). The concentration ranges selected for each drug and investigational agent were based upon clinically achievable concentrations if the clinical Cmax of the agent was known.
Compounds. The drugs and investigational agents: novobiocin (NSC847541), ART-558 (NSC835418), RP-6685 (NSC848927), peposertib (NSC802822), ceralasertib (NSC780249), elimusertib (NSC800525), camonsertib (NSC841442), AZD-1390 (NSC803789), olaparib (NSC753686), talazoparib (NSC767125), rucaparib (NSC756644), sotorasib (NSC818433), MRTX-1133 (NSC836407), SN-38 (NSC673596), topotecan (NSC609699), epotoside (NSC141540), doxorubicin (NSC123127), gemcitabine (NSC613327), 5-fluorouracil (NSC19893), paclitaxel (NSC125973), vemurafenib (NSC761431), MSA-2 (NSC828583), SN-011 (NSC837082), adavosertib (NSC754352), prexasertib (NSC758257), carboplatin (NSC241240) and oxaliplatin (NSC266046), were obtained from the National Cancer Institute (NCI) Developmental Therapeutics Program Chemical Repository (21). The FDA-approved anticancer drug set is available from the Developmental Therapeutics Program at https://dtp.cancer.gov/organization/dscb/obtaining/. […] The stock solutions were prepared in dimethyl sulfoxide (DMSO, Sigma-Aldrich, St. Louis, MO, cat. D2650), except for the platinum compounds which were prepared in saline (Quality Biological, Gaithersburg, MD, cat. 114-055-101), at 800-fold the tested concentration and stored at -70 degrees C prior to their use. All drugs and investigational agents were tested over a range starting from a high concentration at or near the clinical Cmax and decreasing in half-log increments. If the clinical Cmax for an agent had not been determined, the highest concentration tested was 10 microM, except for SN-38, which was tested at a high concentration of 1 microM.
Cell Culture. All cells were maintained in an incubator at 37 degrees C and 5% CO2 with 95% humidity. The PDC lines were cultured according to standard operating procedures established by the NCI PDMR (https://pdmr.cancer.gov). Table 3 of the manuscript, lists the cell lines along with the number of the three cell types plated to form the mct-spheroids and media for tumor cell growth. After thawing, all PDC lines, except 997537-175-T-J1-PDC and 415267-285-R-J2-PDC, were cultured in Matrigel-coated flasks prepared with a working solution of 1X Ham's F-12 nutrient mix, without supplementation (Thermo Fisher Scientific, cat. 11765054), 100 U/mL penicillin-streptomycin (Thermo Fisher Scientific, cat. 15140122), and 2.5% Matrigel (Corning Inc., Corning, NY, cat. 354248) for the first three passages. The two PDC lines 997537-175-T-J1-PDC and 415267-285-R-J2-PDC were cultured on uncoated flasks. The 857933-349-R-J2-PDC line was cultured in 6C/Colon 1B media containing advanced DMEM/F-12 (Thermo Fisher Scientific, cat. 12634028), 10 mM HEPES (Thermo Fisher Scientific, cat. 15630080), 1X GlutaMAX supplement (Thermo Fisher Scientific, cat. 35050061), 0.1 mg/mL primocin (InvivoGen, San Diego, CA, cat. ant-pm-2), 10% defined fetal bovine serum, heat inactivated (HyClone Laboratories Inc., Logan, UT, cat. SH30070.03HI), 50% L-WRN conditioned media (ATCC, cat. CRL-3276), 1.25 mM N-Acetyl-L-cysteine (Sigma-Aldrich, cat. A9165), 10 mM nicotinamide (Sigma-Aldrich, cat. N0636), 1X B-27 supplement (Thermo Fisher Scientific, cat. 17504044), 1X N-2 supplement (Thermo Fisher Scientific, cat. […]
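Also: spheroids exposed to drugs for 7 days.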
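For viability, T/C in this document: 100% = DMSO vehicle treated spheroids.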

C=CCn1c(=O)c2cnc(Nc3ccc(N4CCN(C)CC4)cc3)nc2n1-c1cccc(C(C)(C)O)n1 + Cc1cccc(N(C)C(=O)C2C(O)CCN2c2nc(C)cc(C(F)(F)F)c2C#N)c1
IC50 (second compound 0.0316 µM): 625 nM
IC50 (second compound 0.1 µM): > 1000 nM
IC50 (second compound 0.316 µM): 489 nM
IC50 (second compound 1 µM): 765 nM
IC50 (second compound 3.16 µM): 871 nM
IC50 (second compound 10 µM): 915 nM
viability, T/C (second compound 0.0316 µM, first compound 0.00316 µM): 94.9%
viability, T/C (second compound 0.0316 µM, first compound 0.01 µM): 95.3%
viability, T/C (second compound 0.0316 µM, first compound 0.0316 µM): 132%
viability, T/C (second compound 0.0316 µM, first compound 0.1 µM): 108%
viability, T/C (second compound 0.0316 µM, first compound 0.316 µM): 73.3%
viability, T/C (second compound 0.0316 µM, first compound 1 µM): 33.9%
viability, T/C (second compound 0.1 µM, first compound 0.00316 µM): 66.7%
viability, T/C (second compound 0.1 µM, first compound 0.01 µM): 93.5%
viability, T/C (second compound 0.1 µM, first compound 0.0316 µM): 103%
viability, T/C (second compound 0.1 µM, first compound 0.1 µM): 115%
viability, T/C (second compound 0.1 µM, first compound 0.316 µM): 73.5%
viability, T/C (second compound 0.1 µM, first compound 1 µM): 52.4%
viability, T/C (second compound 0.316 µM, first compound 0.00316 µM): 80.4%
viability, T/C (second compound 0.316 µM, first compound 0.01 µM): 112%
viability, T/C (second compound 0.316 µM, first compound 0.0316 µM): 83.5%
viability, T/C (second compound 0.316 µM, first compound 0.1 µM): 102%
viability, T/C (second compound 0.316 µM, first compound 0.316 µM): 60%
viability, T/C (second compound 0.316 µM, first compound 1 µM): 33.5%
viability, T/C (second compound 1 µM, first compound 0.00316 µM): 111%
viability, T/C (second compound 1 µM, first compound 0.01 µM): 95.1%
viability, T/C (second compound 1 µM, first compound 0.0316 µM): 117%
viability, T/C (second compound 1 µM, first compound 0.1 µM): 113%
viability, T/C (second compound 1 µM, first compound 0.316 µM): 84.3%
viability, T/C (second compound 1 µM, first compound 1 µM): 39.6%
viability, T/C (second compound 3.16 µM, first compound 0.00316 µM): 116%
viability, T/C (second compound 3.16 µM, first compound 0.01 µM): 118%
viability, T/C (second compound 3.16 µM, first compound 0.0316 µM): 111%
viability, T/C (second compound 3.16 µM, first compound 0.1 µM): 108%
viability, T/C (second compound 3.16 µM, first compound 0.316 µM): 111%
viability, T/C (second compound 3.16 µM, first compound 1 µM): 41.7%
viability, T/C (second compound 10 µM, first compound 0.00316 µM): 123%
viability, T/C (second compound 10 µM, first compound 0.01 µM): 73.9%
viability, T/C (second compound 10 µM, first compound 0.0316 µM): 81.3%
viability, T/C (second compound 10 µM, first compound 0.1 µM): 121%
viability, T/C (second compound 10 µM, first compound 0.316 µM): 80.5%
viability, T/C (second compound 10 µM, first compound 1 µM): 47.4%
